Measured values published in patent publication US20240238423A9, “TETRAHYDROISOQUINOLINE HETEROBIFUNCTIONAL BCL-XL DEGRADERS” (Treeline Biosciences, Inc., priority 2022, published 2024).
Read-outs that look alike come from different tables or passages of the source.

Molecular target: T1, Human BCL-XL protein (N-terminal HiBiT tagged BCL-XL in HT1080 cells) (Homo sapiens, UniProt Q07817)
T1 construct: expressed in transfected cells; host or cells: HT-1080 (ATCC CCL-121), stably transduced with lentivirus pLV-UBC-N-HiBiT-BCL-XL-PGK-puro and selected with puromycin
Test: HiBiT based degradation assay
Type: cell-based
Details: HT1080 cells expressing HiBiT-BCL-XL; for Ymin (24 h) / Ymin (6 h): BCL-XL degradation normalized with DMSO control; for DC50: BCL-XL degradation
Source text: Human BCL-XL protein coding open reading frame fused with N-terminal HiBiT coding sequence was synthesized from Integrated DNA Technologies (IDT). Next, N-HiBiT-BCL-XL sequence was cloned into pLV-UBC-PGK-Puro, a lentivirus plasmid purchased from Vectorbuilder, to generate pLV-UBC-N-HiBiT-BCL-XL-PGK-puro. Lentiviral particles were generated from Lenti-X™ 293T cells (Clontech) by co-transfection of pLV-UBC-N-HiBiT-BCL-XL-PGK-puro plasmids and lentiviral packaging plasmid mix (Cellecta). HT-1080 [HT1080](ATCC CCL-121) cells were infected with the lentivirus, and HT1080 cells stably integrated with the lentiviral vectors were established by incubation with 1 μg/mL puromycin (Thermofisher).
HT1080 cells expressing N-terminal HiBiT tagged BCL-XL were dispensed into a 384-well plate pre-spotted with compounds at varying concentrations. Three thousand cells were seeded into each well in 40 μL of RPMI 1640 media. […] After incubation, luminescence was read on a PHERAstar FSX Plate Reader (BMG). BCL-XL degradation at each indicated concentration was normalized with the DMSO control. The BCL-XL degradation curves were plotted using a four-parameter logistic model. For compounds displaying hook effects, the curve fitting was performed using the bottom point of the hook curves (i.e., the point of Ymin) as the bottom plateau to calculate EC50.

T1 sequence (Q07817 whole entry): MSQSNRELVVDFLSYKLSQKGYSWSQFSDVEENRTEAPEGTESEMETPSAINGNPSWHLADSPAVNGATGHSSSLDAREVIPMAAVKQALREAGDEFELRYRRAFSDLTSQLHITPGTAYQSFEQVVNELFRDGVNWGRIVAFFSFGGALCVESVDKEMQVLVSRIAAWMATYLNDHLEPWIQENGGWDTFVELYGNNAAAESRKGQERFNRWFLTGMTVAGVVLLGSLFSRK

Row | SMILES | Ymin (24 h) | DC50 (24 h, read-out: EC50 (24 h)) | Ymin (6 h) | DC50 (6 h, read-out: EC50 (6 h))
1 | Cc1c(OCC[C@@H](C)C2CCN(CC(=O)Nc3ccc4c(C5CCC(=O)NC5=O)nn(C)c4c3)CC2)cccc1-c1ccc(N2CCc3cccc(C(=O)Nc4nc5ccccc5s4)c3C2)nc1C(=O)O (stereo partly drawn) [Compound 167a, 6-[8-(1,3-benzothiazol-2-ylcarbamoyl)-3,4-dihydro-1H-isoquinolin-2-yl]-3-[3-[(3R)-3-[1-[2-[[3-(2,6-dioxo-3-piperidyl)-1-methyl-indazol-6-yl]amino]-2-oxo-ethyl]-4-piperidyl]butoxy]-2-methyl-phenyl]pyridine-2-carboxylic acid] | A (Ymin < 50%) | < 100 nM |  | 
2 | Cc1c(O[C@H]2CC[C@H](CCC[C@@H](C)N3CCN(c4ccc5c(C6CCC(=O)NC6=O)nn(C)c5c4)CC3)CC2)cccc1-c1ccc(N2CCc3cccc(C(=O)Nc4nc5ccccc5s4)c3C2)nc1C(=O)O (single isomer, unassigned) [Compound 333b] | A (Ymin < 50%) | < 100 nM |  | 
3 | Cn1nc(C2CCC(=O)NC2=O)c2ccc(NC(=O)CN3CCC(CCCOc4cccc(-c5ccc(N6CCc7cccc(C(=O)Nc8nc9ccccc9s8)c7C6)nc5C(=O)O)c4)CC3)cc21 (stereo not drawn) [Compound 314, 6-(8-(benzo[d]thiazol-2-ylcarbamoyl)-3,4-dihydroisoquinolin-2(1H)-yl)-3-(3-(3-(1-(2-((3-(2,6-dioxopiperidin-3-yl)-1-methyl-1H-indazol-6-yl)amino)-2-oxoethyl)piperidin-4-yl)propoxy)phenyl)picolinic acid] | B (50% ≤ Ymin < 70%) | < 100 nM |  | 
4 | Cc1c(OCCCCCCCCN2CCN(c3ccc4c(C5CCC(=O)NC5=O)nn(C)c4c3)CC2)cccc1-c1ccc(N2CCc3cccc(C(=O)Nc4nc5ccccc5s4)c3C2)nc1C(=O)O (stereo not drawn) [Compound 205, 6-[8-(1,3-benzothiazol-2-ylcarbamoyl)-3,4-dihydro-1H-isoquinolin-2-yl]-3-[3-[8-[4-[3-(2,6-dioxo-3-piperidyl)-1-methyl-indazol-6-yl]piperazin-1-yl]octoxy]-2-methyl-phenyl]pyridine-2-carboxylic acid] | A (Ymin < 50%) | < 100 nM | B (50% ≤ Ymin < 70%) | < 100 nM
5 | Cc1c(OCCCC2CCN(CC(=O)Nc3ccc4c(C5CCC(=O)NC5=O)nn(C)c4c3F)CC2)cccc1-c1ccc(N2CCc3cccc(C(=O)Nc4nc5ccccc5s4)c3C2)nc1C(=O)O (stereo not drawn) [Compound 302, 6-[8-(1,3-benzothiazol-2-ylcarbamoyl)-3,4-dihydro-1H-isoquinolin-2-yl]-3-[3-[3-[1-[2-[[3-(2,6-dioxo-3-piperidyl)-7-fluoro-1-methyl-indazol-6-yl]amino]-2-oxo-ethyl]-4-piperidyl]propoxy]-2-methyl-phenyl]pyridine-2-carboxylic acid] | B (50% ≤ Ymin < 70%) | < 100 nM |  | 
6 | Cc1c(OCCCN2CCN(CCCOc3ccc4c(C5CCC(=O)NC5=O)nn(C)c4c3)C(C(F)(F)F)C2)cccc1-c1ccc(N2CCc3cccc(C(=O)Nc4nc5ccccc5s4)c3C2)nc1C(=O)O (stereo not drawn) [Compound 165, 6-(8-(benzo[d]thiazol-2-ylcarbamoyl)-3,4-dihydroisoquinolin-2(1H)-yl)-3-(3-(3-(4-(3-((3-(2,6-dioxopiperidin-3-yl)-1-methyl-1H-indazol-6-yl)oxy)propyl)-3-(trifluoromethyl)piperazin-1-yl)propoxy)-2-methylphenyl)picolinic acid] | B (50% ≤ Ymin < 70%) | 100 to 1000 nM |  | 
7 | Cc1c(OCCCC2CCN(CCN3CCN(c4cccc5c(C6CCC(=O)NC6=O)nn(C)c45)CC3)CC2)cccc1-c1ccc(N2CCc3cccc(C(=O)Nc4nc5ccccc5s4)c3C2)nc1C(=O)O (stereo not drawn) [Compound 230, 6-(8-(benzo[d]thiazol-2-ylcarbamoyl)-3,4-dihydroisoquinolin-2(1H)-yl)-3-(3-(3-(1-(2-(4-(3-(2,6-dioxopiperidin-3-yl)-1-methyl-1H-indazol-7-yl)piperazin-1-yl)ethyl)piperidin-4-yl)propoxy)-2-methylphenyl)picolinic acid] | A (Ymin < 50%) | < 100 nM |  | 
8 | Cc1c(O[C@H]2CC[C@H](C[C@H](C)CN3CCN(c4cccc5c(C6CCC(=O)NC6=O)nn(C)c45)CC3)CC2)cccc1-c1ccc(N2CCc3cccc(C(=O)Nc4nc5ccccc5s4)c3C2)nc1C(=O)O (single isomer, unassigned) [Compound 284a] | A (Ymin < 50%) | < 100 nM |  | 
9 | Cc1c(OCC[C@@H]2CCN(CC(=O)Nc3cccc4c(C5CCC(=O)NC5=O)nn(C)c34)C2)cccc1-c1ccc(N2CCc3cccc(C(=O)Nc4nc5ccccc5s4)c3C2)nc1C(=O)O (stereo partly drawn) [Compound 231a, 6-[8-(1,3-benzothiazol-2-ylcarbamoyl)-3,4-dihydro-1H-isoquinolin-2-yl]-3-[3-[2-[(3S)-1-[2-[[3-(2,6-dioxo-3-piperidyl)-1-methyl-indazol-7-yl]amino]-2-oxo-ethyl]pyrrolidin-3-yl]ethoxy]-2-methyl-phenyl]pyridine-2-carboxylic acid] | B (50% ≤ Ymin < 70%) | < 100 nM |  | 
10 | Cc1c(OCCCN2CCN(CC3CCN(c4cccc5c(C6CCC(=O)NC6=O)nn(C)c45)CC3)CC2)cccc1-c1ccc(N2CCc3cccc(C(=O)Nc4nc5ccccc5s4)c3C2)nc1C(=O)O (stereo not drawn) [Compound 221, 6-(8-(benzo[d]thiazol-2-ylcarbamoyl)-3,4-dihydroisoquinolin-2(1H)-yl)-3-(3-(3-(4-((1-(3-(2,6-dioxopiperidin-3-yl)-1-methyl-1H-indazol-7-yl)piperidin-4-yl)methyl)piperazin-1-yl)propoxy)-2-methylphenyl)picolinic acid] | A (Ymin < 50%) | < 100 nM |  | 
11 | Cc1c(O[C@H]2CC[C@H](CCCCN3CCC(Oc4ccc5c(C6CCC(=O)NC6=O)nn(C)c5c4)CC3)CC2)cccc1-c1ccc(N2CCc3cccc(C(=O)Nc4nc5ccccc5s4)c3C2)nc1C(=O)O (stereo partly drawn) [Compound 326a, 6-(8-(benzo[d]thiazol-2-ylcarbamoyl)-3,4-dihydroisoquinolin-2(1H)-yl)-3-(3-(((1s,4r)-4-(4-(4-((3-(2,6-dioxopiperidin-3-yl)-1-methyl-1H-indazol-6-yl)oxy)piperidin-1-yl)butyl)cyclohexyl)oxy)-2-methylphenyl)picolinic acid] | A (Ymin < 50%) | < 100 nM |  | 
12 | Cc1c(Oc2ccc(CCC(=O)N3CCN(c4ccc5c(C6CCC(=O)NC6=O)nn(C)c5c4)CC3)cc2)cccc1-c1ccc(N2CCc3cccc(C(=O)Nc4nc5ccccc5s4)c3C2)nc1C(=O)O (stereo not drawn) [Compound 244, 6-(8-(benzo[d]thiazol-2-ylcarbamoyl)-3,4-dihydroisoquinolin-2(1H)-yl)-3-(3-(4-(3-(4-(3-(2,6-dioxopiperidin-3-yl)-1-methyl-1H-indazol-6-yl)piperazin-1-yl)-3-oxopropyl)phenoxy)-2-methylphenyl)picolinic acid] | B (50% ≤ Ymin < 70%) | < 100 nM | C (Ymin ≥ 70%) | 1000 to 10000 nM
13 | Cc1c(OCCCC2CCN(CCN3CCN(c4ccc5c(C6CCC(=O)NC6=O)nn(C)c5c4)CC3)CC2)cccc1-c1ccc(N2CCc3cccc(C(=O)Nc4nc5ccccc5s4)c3C2)nc1C(=O)O (stereo not drawn) [Compound 220, 6-[8-(1,3-benzothiazol-2-ylcarbamoyl)-3,4-dihydro-1H-isoquinolin-2-yl]-3-[3-[3-[1-[2-[4-[3-(2,6-dioxo-3-piperidyl)-1-methyl-indazol-6-yl]piperazin-1-yl]ethyl]-4-piperidyl]propoxy]-2-methyl-phenyl]pyridine-2-carboxylic acid] | A (Ymin < 50%) | < 100 nM |  | 
